Data from the CheMixHub drug solubility set.

Assay: xn = mol fraction of the nth substance listed, in the solute-free solvent

CN1CCN(C2=Nc3cc(Cl)ccc3Nc3ccccc32)CC1 + CS(C)=O + O
solubility (g/100 g solution)
Conditions | 293.15 K | 298.15 K | 303.15 K | 308.15 K | 313.15 K | 318.15 K | 323.15 K | 328.15 K | 333.15 K
x2 = 0.02501 | 0.0367 | 0.0478 | 0.0615 | 0.0795 | 0.0996 | 0.126 | 0.159 | 0.2 | 0.249
x2 = 0.05457 | 0.375 | 0.473 | 0.591 | 0.724 | 0.873 | 1.06 | 1.28 | 1.54 | 1.84
x2 = 0.09003 | 1.33 | 1.64 | 1.96 | 2.36 | 2.78 | 3.26 | 3.88 | 4.56 | 5.3
x2 = 0.1334 | 3.26 | 3.82 | 4.52 | 5.18 | 6.01 | 6.93 | 8.01 | 9.03 | 10.2
x2 = 0.1876 | 5.71 | 6.6 | 7.64 | 8.74 | 9.88 | 11.3 | 12.7 | 14.2 | 15.7
x2 = 0.2572 | 9.16 | 10.5 | 12.1 | 13.6 | 15.4 | 17.2 | 19.1 | 21.3 | 23.4
x2 = 0.3501 | 12.9 | 14.6 | 16.6 | 18.6 | 20.7 | 23.1 | 25.5 | 27.9 | 30.5
x2 = 0.4801 | 16.2 | 18.2 | 20.4 | 22.7 | 25.2 | 27.9 | 30.6 | 33.4 | 36.3
x2 = 0.6751 | 18.4 | 20.7 | 23.2 | 25.8 | 28.6 | 31.3 | 34.3 | 37.4 | 40.4

S=c1[nH]ncs1 + CCO + O
solubility (g/100 g solution)
Conditions | 278.15 K | 283.15 K | 288.15 K | 293.15 K | 298.15 K | 303.15 K | 308.15 K | 313.15 K | 318.15 K | 323.15 K
x2 = 0.1 | 0.653 | 0.91 | 1.26 | 1.71 | 2.24 | 2.97 | 3.91 | 5.01 | 6.49 | 7.94
x2 = 0.2 | 1.93 | 2.6 | 3.27 | 4.16 | 5.3 | 6.67 | 8.34 | 10.5 | 12.8 | 15.2
x2 = 0.3 | 3.54 | 4.46 | 5.7 | 7.08 | 8.6 | 10.7 | 12.9 | 15.5 | 18.5 | 21.9
x2 = 0.4 | 5.21 | 6.58 | 8.06 | 9.53 | 11.3 | 13.6 | 16.1 | 18.9 | 22.3 | 26
x2 = 0.5 | 6.64 | 8 | 9.61 | 11.3 | 13.3 | 15.6 | 18.1 | 21.1 | 24.5 | 28.1
x2 = 0.6 | 7.53 | 8.92 | 10.7 | 12.4 | 14.4 | 16.5 | 19.2 | 22.3 | 25.4 | 28.5
x2 = 0.7 | 8.26 | 9.5 | 11.2 | 13.1 | 15 | 17.1 | 19.5 | 22.4 | 25.4 | 28
x2 = 0.8 | 8.41 | 10.1 | 11.6 | 13.3 | 15 | 17.2 | 19.5 | 22.1 | 25 | 27.6
x2 = 0.9 | 8.73 | 10.2 | 11.8 | 13.3 | 15.1 | 16.9 | 19.1 | 21.6 | 23.9 | 26.6

CCC(C)n1ncn(-c2ccc(N3CCN(c4ccc(OCC5COC(Cn6cncn6)(c6ccc(Cl)cc6Cl)O5)cc4)CC3)cc2)c1=O (configuration not stated) + ClCCl + CCO
solubility (g/100 g solution)
Conditions | x2 = 0.05744 | x2 = 0.1206 | x2 = 0.1903 | x2 = 0.2677 | x2 = 0.3542 | x2 = 0.4513 | x2 = 0.5613 | x2 = 0.6869 | x2 = 0.8315
288.15 K | 0.0488 | 0.124 | 0.37 | 1.04 | 2.95 | 7.26 | 15.2 | 21.3 | 25.9
293.15 K | 0.0616 | 0.163 | 0.436 | 1.35 | 3.51 | 8.44 | 16.3 | 22.6 | 27
298.15 K | 0.0776 | 0.215 | 0.511 | 1.72 | 4.09 | 9.83 | 17.6 | 24 | 28.2
303.15 K | 0.0979 | 0.279 | 0.598 | 2.16 | 4.81 | 11.3 | 18.8 | 25.4 | 29.3
308.15 K | 0.122 | 0.362 | 0.694 | 2.7 | 5.58 | 13 | 20.1 | 26.7 | 30.5

OCCN(CCO)c1nc(N2CCCCC2)c2nc(N(CCO)CCO)nc(N3CCCCC3)c2n1 + CO + O
solubility (g/100 g solution)
Conditions | 293.15 K | 298.15 K | 303.15 K | 308.15 K | 313.15 K | 318.15 K | 323.15 K | 328.15 K
x2 = 0.3 | 0.0465 | 0.0712 | 0.121 | 0.178 | 0.281 | 0.39 | 0.543 | 0.757
x2 = 0.4 | 0.197 | 0.312 | 0.48 | 0.676 | 1.01 | 1.48 | 2.27 | 3.26
x2 = 0.5 | 0.513 | 0.826 | 1.16 | 1.64 | 2.54 | 3.82 | 6.13 | 9.01
x2 = 0.6 | 1.12 | 1.6 | 2.21 | 3.21 | 4.77 | 7.29 | 11.6 | 18
x2 = 0.7 | 1.8 | 2.43 | 3.45 | 5.11 | 7.41 | 11.5 | 17.4 | 26.3
x2 = 0.8 | 2.43 | 3.31 | 4.57 | 6.51 | 9.53 | 14.1 | 20.9 | 29.2
x2 = 0.9 | 2.81 | 3.85 | 5.46 | 7.53 | 10.9 | 15.8 | 22.7 | 31.9

Nc1nccnc1Cl + OCCO + O
solubility (g/100 g solution)
Conditions | 278.15 K | 283.15 K | 288.15 K | 293.15 K | 298.15 K | 303.15 K | 308.15 K | 313.15 K | 318.15 K | 323.15 K
x2 = 0.03125 | 0.0244 | 0.0327 | 0.0431 | 0.0542 | 0.0663 | 0.0791 | 0.0925 | 0.108 | 0.123 | 0.139
x2 = 0.06767 | 0.0337 | 0.045 | 0.0589 | 0.0739 | 0.0903 | 0.108 | 0.126 | 0.147 | 0.167 | 0.189
x2 = 0.1107 | 0.0487 | 0.0645 | 0.0838 | 0.105 | 0.128 | 0.153 | 0.178 | 0.208 | 0.236 | 0.267
x2 = 0.1622 | 0.0695 | 0.0914 | 0.118 | 0.147 | 0.179 | 0.213 | 0.25 | 0.29 | 0.33 | 0.372
x2 = 0.225 | 0.09 | 0.119 | 0.153 | 0.192 | 0.235 | 0.28 | 0.328 | 0.382 | 0.435 | 0.491
x2 = 0.3034 | 0.113 | 0.148 | 0.19 | 0.239 | 0.291 | 0.347 | 0.408 | 0.474 | 0.541 | 0.61
x2 = 0.4038 | 0.13 | 0.17 | 0.218 | 0.273 | 0.334 | 0.399 | 0.469 | 0.546 | 0.625 | 0.705
x2 = 0.5373 | 0.139 | 0.182 | 0.232 | 0.292 | 0.357 | 0.427 | 0.505 | 0.589 | 0.676 | 0.764
x2 = 0.7232 | 0.142 | 0.182 | 0.235 | 0.297 | 0.364 | 0.438 | 0.519 | 0.607 | 0.699 | 0.792

O=C(O)CC(O)C(=O)O (configuration not stated) + C1CCOC1 + CC#N
solubility (g/100 g solution)
Conditions | 278.15 K | 283.15 K | 288.15 K | 293.15 K | 298.15 K | 303.15 K | 308.15 K | 313.15 K | 318.15 K | 323.15 K
x2 = 0.1246 | 19.5 | 21.2 | 23.2 | 25.3 | 26.9 | 29.2 | 31.6 | 34.1 | 36.6 | 39.6
x2 = 0.1961 | 27.1 | 28.6 | 30.5 | 32.5 | 34.7 | 37.1 | 39.2 | 41.7 | 44.3 | 47
x2 = 0.2751 | 29.8 | 32 | 34 | 36 | 38 | 40.2 | 42.3 | 45 | 47.2 | 49.9
x2 = 0.3628 | 33.2 | 34.9 | 36.9 | 38.9 | 40.9 | 43 | 45.1 | 47.7 | 49.9 | 52.5
x2 = 0.4606 | 34.6 | 36 | 37.8 | 39.7 | 41.5 | 43.5 | 45.9 | 48.1 | 50.5 | 53.4
x2 = 0.5705 | 35.7 | 37.3 | 39.1 | 41.1 | 43.2 | 45.5 | 47.8 | 50.2 | 52.9 | 55.6
x2 = 0.6949 | 37.8 | 39 | 40.6 | 42.3 | 44.3 | 46 | 48.3 | 50.3 | 52.7 | 55.5

Nc1cccc(S(=O)(=O)c2cccc(N)c2)c1 + CO + O
solubility (g/100 g solution)
Conditions | 283.15 K | 288.15 K | 293.15 K | 298.15 K | 303.15 K | 308.15 K | 313.15 K | 318.15 K | 323.15 K | 328.15 K
x2 = 0.05881 | 0.0853 | 0.113 | 0.149 | 0.202 | 0.26 | 0.333 | 0.429 | 0.552 | 0.675 | 0.867
x2 = 0.1233 | 0.182 | 0.244 | 0.31 | 0.4 | 0.526 | 0.654 | 0.83 | 1.04 | 1.28 | 1.59
x2 = 0.1942 | 0.315 | 0.413 | 0.533 | 0.675 | 0.849 | 1.08 | 1.34 | 1.67 | 2.05 | 2.48
x2 = 0.2727 | 0.512 | 0.66 | 0.84 | 1.04 | 1.32 | 1.63 | 2 | 2.41 | 2.93 | 3.56
x2 = 0.3599 | 0.734 | 0.92 | 1.16 | 1.44 | 1.77 | 2.18 | 2.64 | 3.19 | 3.81 | 4.63
x2 = 0.4576 | 0.977 | 1.22 | 1.53 | 1.89 | 2.32 | 2.81 | 3.41 | 4.06 | 4.85 | 5.78
x2 = 0.5675 | 1.28 | 1.57 | 1.95 | 2.42 | 2.93 | 3.58 | 4.23 | 5.08 | 5.95 | 7.08
x2 = 0.6923 | 1.59 | 1.95 | 2.37 | 2.95 | 3.56 | 4.28 | 5.14 | 6.1 | 7.13 | 8.38
x2 = 0.835 | 1.93 | 2.32 | 2.83 | 3.42 | 4.15 | 4.97 | 5.91 | 6.97 | 8.2 | 9.54
